Experimental data as given in patent US20110124724A1, “USE OF DRONEDARONE OR A PHARMACEUTICALLY ACCEPTABLE SALT THEREOF, FOR THE PREPARATION OF A MEDICAMENT FOR REGULATING THE POTASIUM LEVEL IN THE BLOOD” (SANOFI-AVENTIS, priority 2008, published 2011).
Counter-ions that a name gives are not always drawn.

Test: Prospective, multinational, multicentre, double-blind, placebo-controlled clinical study in patients with a history of atrial fibrillation or atrial flutter
Assay type: in vivo
Protocol: The patients had to have a history of atrial fibrillation or flutter and/or could be in normal sinus rhythm or in atrial fibrillation or flutter at inclusion.
The patient recruitment was carried out by taking into account the following inclusion criteria:
Inclusion Criteria: • 1) One of the following risk factors had to be present: • age equal to or above 70, or even above 75, possibly combined with at least one of the risk factors below: • hypertension (taking antihypertensives of at least two different classes), • diabetes, • history of cerebral stroke (transient ischemic event or completed cerebral stroke) or of systemic embolism, • left atrial diameter greater than or equal to 50 mm measured by echocardiography, • left ventricular ejection fraction less than 40%, measured by two-dimensional echography; • 2) availability of an electrocardiogram carried out during the past 6 months in order to document the presence or the history of atrial fibrillation or flutter; • 3) availability of an electrocardiogram carried out during the past 6 months in order to document the presence or absence of normal sinus rhythm.
Treatment was initiated using tablets containing either the placebo or an amount of dronedarone hydrochloride corresponding to 400 mg of dronedarone at a rate of one tablet in the morning during or shortly after breakfast and one tablet in the evening during or shortly after dinner.
The anticipated duration of the treatment was variable according to the time at which each patient was included in the study, and could range from a minimum of 12 months for the last patient included up to a maximum corresponding to the entire duration of the study (12 months+duration of inclusion), i.e. approximately 30 months for the first patients included.
The potassium concentration-modulating effect is clearly documented in the study by virtue of the results of analyses of regular blood samples taken throughout the duration of the study in the context of the monitoring of vital parameters.
The variations in potassium (in mmol/l) between the first and the last administration of the medicament of the study are included in FIG. 1, in which B signifies basal level, D signifies day and M signifies month.
The number of patients with hypokalaemia was compared using Fischer's exact test. Hypokalaemia is defined as a concentration in potassium ion [K+] below 3 mmol/L.

[1] = among 2255 treated patients with a potassium measurement, from randomization until last administration

## CCCCc1oc2ccc(NS(C)(=O)=O)cc2c1C(=O)c1ccc(OCCCN(CCCC)CCCC)cc1 [dronedarone hydrochloride]
[1]
  number of patients with hypokalaemia ([K+] below 3 mmol/L): 14 patients
  proportion of patients with hypokalaemia ([K+] below 3 mmol/L): 0.6%

## CCCCc1oc2ccc(NS(C)(=O)=O)cc2c1C(=O)c1ccc(OCCCN(CCCC)CCCC)cc1 [dronedarone, 2-n-Butyl-3-[4-(3-di-n-butylaminopropoxy)benzoyl]-5-methylsulphonamidobenzofuran]
Compared to placebo, after the 24th month, 400 mg dronedarone twice daily, p<0.0001
  change in blood potassium level (analysis of covariance, taking into account the starting value): significant difference in favour of dronedarone
Hypertensive patients
  reduction in the risk of sudden death: 62%
Patients not taking diuretics
  reduction in the risk of sudden death compared with the placebo: 34%
Patients on diuretics
  reduction in the risk of sudden death compared with the placebo: 70.4%
Patients who were not hypertensive
  reduction in the risk of sudden death: 45.5%
